The nature of series [1]: General condition observation (clinical signs) in anterior chamber aqueous humor pressure load rat model. Type of series: in vivo, Rat; Slc: SD. Details: key: —: No anormal sign. The conditions noted are these: 1 mg/mL eye drop, right eye, per animal. As for the experimental part:
• Species and strains: Rat; Slc: SD • Number of animals on arrival and sex: 50 males • Age in weeks at arrival: 6 weeks old • Body weight range at arrival: 147.2 to 170.0 g • Source: Japan SLC, Inc.
The body weight of the animals was measured at a frequency of once a week or more, and the general condition observation was performed every day.
• Administration route: Eyedrop administration, intravenous administration • Administration method (eyedrop): Eyedrop administration was performed on a treated eye (right eye) of a rat using a micropipette 4 times a day (at intervals of 1.5 hours or more). • Administration method (intravenous): The amount of administration solution, calculated from the body weight on the day of administration, was administered from the tail vein using a syringe and an injection needle about 30 minutes before ischemic load. • Time of administration: Administration was performed according to the following schedule.

The subject of series [2] is laser-induced choroidal neovascularization rat model. Nature of the series: Laser-induced choroidal neovascularization rat model: CNV area in choroidal flat mount (FITC-dextran). The conditions noted are these: for Area of CNV Lesion, Mean: 14 days 4 times a day, N=10; for Area of CNV Lesion, Mean / Individual Value of CNV Area in Each Animal: 14 days after laser. It is filed as in vivo. As for the experimental part: The groups were set as in Table 8 below. Laser irradiation was performed on the right eye in 10 animals in each group. EYLEA (registered trademark) was administered intravitreally into the right eye of individuals in Group 2 immediately after laser irradiation. For the individuals of Groups 1, 3, and 4, eyedrop administration of the administration substances of each group was performed four times a day from the day of laser irradiation to the day before eyeball enucleation.
Animals to be laser-irradiated were subjected to pupil dilation with Mydorin (registered trademark) P ophthalmic solution, and subjected to general anesthesia by intramuscular injection of a mixed solution of ketamine hydrochloride/xylazine hydrochloride (4:1, v/v) (1 mL/kg) into the thigh muscle. Then, fundus of the right eye was then observed using a slit lamp (SL-130, Carl Zeiss Meditec AG), and laser irradiation was performed at six locations using a green laser photocoagulation device (GYC-500, Nidek Co., Ltd.), avoiding thick capillaries of the retina. The laser conditions were a wavelength of 532 nm (green), a spot size of 50 μm, an irradiation time of 0.1 sec, and a laser irradiation intensity of 300 mW. Except for the individuals to be administered EYLEA (registered trademark), sodium hyaluronate (Hyalein (registered trademark) ophthalmic solution 0.3%, Santen Pharmaceutical Co., Ltd.) as an eye drop for treatment of corneal and conjunctival epithelial disorders was instilled into both eyes after laser irradiation.
Levofloxacin hydrate (CRAVIT (registered trademark) 1.5% ophthalmic solution, Santen Pharmaceutical Co., Ltd.) as a broad-spectrum antibacterial eye drop and oxybuprocaine hydrochloride (Benoxil (registered trademark) 0.4% ophthalmic solution, Santen Pharmaceutical Co., Ltd.) as an ophthalmic topical anesthetic were once instilled into the right eye of rats in Group 2 (EYLEA (registered trademark) administration group) after end of laser irradiation, and then EYLEA (registered trademark) was intravitreally administered at a dose of 200 μg/5 μL/eye using a 33 G two-stage injection needle and a microsyringe (Ito Manufacturing Co., Ltd.). The microsyringe was washed with D-PBS before administration. Hyalein (registered trademark) ophthalmic solution 0.3% was instilled into both eyes after intravitreal administration.
Eyedrop administration of the test substance and the negative control administration solution was performed in a volume of 5 μL/eye using a micropipette (Eppendorf Research Plus V, Eppendorf) at the administration period and the number of times determined for each group (see Group constitution table of Item (2)). At that time, since a test substance solution adheres to an outer side of the tip, care was taken so that the adhering test substance solution was wiped off with a Kimwipe once each time of eyedrop administration, and an excessive amount of the test substance solution was not instilled. In addition, although the tip of the pipette tip was sharp, care was taken not to damage the eyeball surface. Immediately before administration, the administration solution was lightly (about several seconds) centrifuged using a small microcentrifuge Wonder Spin, and the supernatant was used for administration.
Fourteen days after laser irradiation (Day 14), under general anesthesia by intramuscular femoral administration (1 mL/kg) of a ketamine hydrochloride/xylazine hydrochloride (4:1, v/v) mixed solution, a 4% FITC-dextran solution was administered to the tail vein at a dose of 40 mg/l mL/animal.
After 1 minute from the tail vein administration of the 4% FITC-dextran solution, rats were euthanized by excessive anesthesia by administration of 129.6 mg/mL sodium pentobarbital solution and the right eye ball was enucleated. The enucleated eyeball was fixed in a 4% paraformaldehyde phosphate buffer (FUJIFILM Wako Pure Chemical Corporation, hereinafter referred to as 4% PFA) for 12 to 30 hours at normal temperature. […]

From patent US20260091082A1, “CYCLIC PEPTIDE DERIVATIVE COMPOSITION FOR TREATING OR PREVENTING EYE DISEASE” (DKS Co. Ltd., priority 2022, published 2026) come the findings set out here.

Several values for one entry are separate records, joined by “and”; a condition that tells them apart may be missing. Equal entries are not always repeated. Entries after “also recorded” stand apart in the source; their conditions may differ.

Take `CC[C@@]1(C)Oc2cc(ccc2O)C[C@H](NC)C(=O)N[C@@H](C(C)C)C(=O)N[C@@H]1C(=O)N[C@@H](CC(=O)O)C(=O)O` [Compound 9]: the Clinical signs result in series [1] (Day 0, animals 201-210 (test group 2, dosed on the 2 days before model creation)) was “—”; in series [1] (Day 0, animals 301-310 (test group 3, dosed 13 days from the day after model creation)) it was “—”; in series [1] (Day 1, animals 201-210 (test group 2, dosed on the 2 days before model creation)) it was “—”; in series [1] (Day 1, animals 301-310 (test group 3, dosed 13 days from the day after model creation)), “—”; in series [1] (Day 2, animals 201-210 (test group 2, dosed on the 2 days before model creation)) it was “—”; in series [1] (Day 2, animals 301-310 (test group 3, dosed 13 days from the day after model creation)), “—”. For the same compound, the Clinical signs result in series [1] (Day 3, animals 201-210 (test group 2, dosed on the 2 days before model creation)) is “—”; in series [1] (Day 3, animals 301-310 (test group 3, dosed 13 days from the day after model creation)), “—”; in series [1] (Day 4, animals 201-210 (test group 2, dosed on the 2 days before model creation)), “—”; in series [1] (Day 4, animals 301-310 (test group 3, dosed 13 days from the day after model creation)), “—”; in series [1] (Day 5, animals 201-210 (test group 2, dosed on the 2 days before model creation)) it was “—”; in series [1] (Day 5, animals 301-310 (test group 3, dosed 13 days from the day after model creation)), “—”. Also, the Clinical signs entry is “—” in series [1] (Day 6, animals 201-210 (test group 2, dosed on the 2 days before model creation)); “—” in series [1] (Day 6, animals 301-310 (test group 3, dosed 13 days from the day after model creation)); “—” in series [1] (Day −1, animals 201-210 (test group 2, dosed on the 2 days before model creation)); “—” in series [1] (Day −1, animals 301-310 (test group 3, dosed 13 days from the day after model creation)); “—” in series [1] (Day −2, animals 201-210 (test group 2, dosed on the 2 days before model creation)); “—” in series [1] (Day −2, animals 301-310 (test group 3, dosed 13 days from the day after model creation)). The “Area of CNV Lesion, Mean” value stood at 471160.8 pixel in series [2] (Group 3, eye drop 5 μg/5 μL/eye (1 mg/mL)) and 444173.4 pixel in series [2] (Group 4, eye drop 50 μg/5 μL/eye (10 mg/mL)). Also, the “Individual Value of CNV Area in Each Animal” value in series [2] (Group 3 individual animals, eye drop 5 μg/5 μL/eye) is 330375.8 pixel and 515551.8 pixel and 492136.5 pixel and 558285.0 pixel and 496494.0 pixel and 466828.5 pixel and 460996.3 pixel and 460127.0 pixel and 449544.0 pixel and 481268.8 pixel; in series [2] (Group 4 individual animals, eye drop 50 μg/5 μL/eye), 313878.7 pixel and 591175.3 pixel and 382504.5 pixel and 527509.5 pixel and 426003.0 pixel and 447473.0 pixel and 394615.5 pixel and 494652.3 pixel and 438691.5 pixel and 425230.3 pixel. Also, the “CNV area compared with Group 1 (saline) / drug efficacy, in words” value in series [2] (eyedrop 1 mg/mL (Group 3) and 10 mg/mL (Group 4), Dunnett's test) is “no significant difference in CNV area was observed; also recorded: no drug efficacy on CNV area was observed”. Further, the “Dose dependence of CNV area reduction, in words” value in series [2] (eyedrop 1 mg/mL and 10 mg/mL, 4 times/day for 14 days) is given as “reduction in CNV area correlated with the eyedrop administration dose was confirmed”.
